In patent US6914045B2, “Glycopeptide antibiotics” (Wyeth Holdings Corporation, priority 2001, dated 2005):
Converted amounts (≈) assume the structure as drawn.

Columns and labels:
Experiment in all cases: in vitro antibacterial evaluation, MIC by broth dilution
Type in all cases: cell-based
Enterococcus sp. = test system: Enterococcus sp.
Procedure, shortened: (§1)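 Test organisms, which included recent clinical isolates resistant to methicillin, penicillin and/or vancomycin, were inoculated at 5×10^5 CFU/mL into Muller-Hinton II […] containing antibiotic at 64-0.06 μg/mL. Minimum inhibitory concentrations were then read as the lowest level inhibiting growth.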

Streptococcus sp. = test system: Streptococcus sp.
Procedure, shortened: as §1

Staphylococcus sp. = test system: Staphylococcus sp.
Procedure, shortened: as §1

Escherichia coli = test system: Escherichia coli
Procedure, shortened: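 MIC is the lowest antibiotic concentration (tested 64-0.06 μg/mL) preventing growth of a 5×10^5 CFU/mL inoculum. Determined by broth dilution in Mueller-Hinton II medium following NCCLS standard M7-A2.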

## CC(c1ccccc1)C1NC(=O)CNC(=O)C(CO)NC(=O)C(C(O)C2CNC(=N)N2C2OC(CO)C(O)C(O)C2O)NC(=O)C(C(O)C2CNC(=N)N2)NC(=O)C(Cc2ccc3oc(-c4ccc5c(c4)Cc4ccccc4-5)nc3c2)NC1=O (stereo not drawn) [Example 37, Cyclo[3-[2-(9H-fluoren-2-yl)-1,3-benzoxazol-5-yl]alanyl-3-(2-iminoimidazolidin-4-yl)seryl-3-(3-hexopyranosyl-2-iminoimidazolidin-4-yl)serylserylglycyl-β-methylphenylalanyl]]
Enterococcus sp.
  MIC Enterococcus avium (GC 4558): 8 µg/mL (≈ 6.9 µM)
  MIC Enterococcus faecalis (ATCC 29212): 16 µg/mL (≈ 13.8 µM)
  MIC Enterococcus faecalis (GC 2242): 16 µg/mL (≈ 13.8 µM)
  MIC Enterococcus faecalis (GC 2691): 16 µg/mL (≈ 13.8 µM)
  MIC Enterococcus faecalis (GC 3059): 16 µg/mL (≈ 13.8 µM)
  MIC Enterococcus faecalis (GC 4552): 16 µg/mL (≈ 13.8 µM)
  MIC Enterococcus faecalis (GC 4553): 4 µg/mL (≈ 3.45 µM)
  MIC Enterococcus faecalis (GC 4554): 16 µg/mL (≈ 13.8 µM)
  MIC Enterococcus faecalis (GC 6189): 16 µg/mL (≈ 13.8 µM)
  MIC Enterococcus faecium (GC 2243): 8 µg/mL (≈ 6.9 µM)
  MIC Enterococcus faecium (GC 4556): 16 µg/mL (≈ 13.8 µM)
  MIC Enterococcus faecium (GC 4557): 4 µg/mL (≈ 3.45 µM)
Streptococcus sp.
  MIC Streptococcus agalactiae (GC 4564): 16 µg/mL (≈ 13.8 µM)
  MIC Streptococcus pneumoniae (ATCC 6301): 32 µg/mL (≈ 27.6 µM)
  MIC Streptococcus pneumoniae (GC 1894): 16 µg/mL (≈ 13.8 µM)
  MIC Streptococcus pneumoniae (GC 4565): 16 µg/mL (≈ 13.8 µM)
  MIC Streptococcus pyogenes (GC 4563): 4 µg/mL (≈ 3.45 µM)
Staphylococcus sp.
  MIC Coagulase Negative Staphylococcus (GC 4547): 16 µg/mL (≈ 13.8 µM)
  MIC Coagulase Negative Staphylococcus (GC 4548): 8 µg/mL (≈ 6.9 µM)
  MIC Coagulase Negative Staphylococcus (GC 4549): 8 µg/mL (≈ 6.9 µM)
  MIC Coagulase Negative Staphylococcus (GC 4551): 8 µg/mL (≈ 6.9 µM)
  MIC Coagulase Negative Staphylococcus (GC 6257): 4 µg/mL (≈ 3.45 µM)
  MIC Staphylococcus aureus (ATCC 29213): 16 µg/mL (≈ 13.8 µM)
  MIC Staphylococcus aureus (GC 1131): 8 µg/mL (≈ 6.9 µM)
  MIC Staphylococcus aureus (GC 3051): 8 µg/mL (≈ 6.9 µM)
  MIC Staphylococcus aureus (GC 3053): 8 µg/mL (≈ 6.9 µM)
  MIC Staphylococcus aureus (GC 4541): 8 µg/mL (≈ 6.9 µM)
  MIC Staphylococcus aureus (GC 4542): 8 µg/mL (≈ 6.9 µM)
  MIC Staphylococcus aureus (GC 4544): 8 µg/mL (≈ 6.9 µM)
  MIC Staphylococcus aureus (GC 4545): 16 µg/mL (≈ 13.8 µM)
  MIC Staphylococcus aureus-SMITH (GC 4543): 8 µg/mL (≈ 6.9 µM)
  MIC Staphylococcus haemolyticus (GC 4546): 8 µg/mL (≈ 6.9 µM)
Escherichia coli
  MIC Escherichia coli (ATCC 25922): 128 µg/mL (≈ 110 µM)
  MIC Escherichia coli (GC 4559): >128 µg/mL
  MIC Escherichia coli (GC 4560): 4 µg/mL (≈ 3.45 µM)
